Measured values taken from patent US10597388B2, “Pyridazinone herbicides” (FMC CORPORATION, priority 2014, dated 2020).
Where two headings read alike, the source gives them in different places.

How the values were obtained:
Assay type in all cases: in vivo
[1] = test system: barnyardgrass (Echinochloa crus-galli); assay: Test A greenhouse herbicide test, pre- and postemergence; conditions: Echinochloa crus-galli, 240 h; for pest or weed control at 1000 g/ha: 1000 g ai/ha; for pest or weed control at 1000 g/ha / pest or weed control at 500 g/ha: 0 to 100 scale; for pest or weed control at 125 g/ha: 125 g ai/ha; for pest or weed control at 500 g/ha: 500 g ai/ha
How it was run: (§1)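 Seeds sown in loam–sand blend got a preemergence directed soil spray of compound in non-phytotoxic solvent with surfactant. Postemergence treatment was given at 2–10 cm, one- to two-leaf stage. After ~10 d in greenhouse, injury was rated visually vs untreated controls, 0 (no effect) to 100 (complete control).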

[2] = test system: foxtail, giant (giant foxtail, Setaria faberii); assay: as above; conditions: Setaria faberi, 240 h; for pest or weed control at 1000 g/ha: 1000 g ai/ha; for pest or weed control at 1000 g/ha / pest or weed control at 500 g/ha: 0 to 100 scale; for pest or weed control at 125 g/ha: 125 g ai/ha; for pest or weed control at 500 g/ha: 500 g ai/ha
How it was run: as §1

[3] = test system: pigweed (Amaranthus retroflexus); assay: as above; conditions: Amaranthus retroflexus, 240 h; for pest or weed control at 1000 g/ha: 1000 g ai/ha; for pest or weed control at 1000 g/ha / pest or weed control at 500 g/ha: 0 to 100 scale; for pest or weed control at 125 g/ha: 125 g ai/ha; for pest or weed control at 500 g/ha: 500 g ai/ha
How it was run: as §1

[4] = test system: wheat (Triticum aestivum); assay: as above; conditions: Triticum aestivum, 240 h; for plant injury at 1000 g/ha: 1000 g ai/ha; for plant injury at 1000 g/ha / plant injury at 500 g/ha: 0 to 100 scale; for plant injury at 125 g/ha: 125 g ai/ha; for plant injury at 500 g/ha: 500 g ai/ha
How it was run: as §1

corn (Zea mays) = assay: Test C greenhouse herbicide test, pre- and postemergence
How it was run: (§2)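 Each species was treated both before emergence, in a loam–sand soil mix, and after emergence, as 1- to 4-leaf seedlings in peat-based potting medium. Plants stayed in the greenhouse 13 to 15 d, then were scored from 0 (no effect) to 100 (complete control) relative to controls.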

[5] = test system: ryegrass, Italian (Italian ryegrass, Lolium multiflorum); assay: as above
How it was run: as §2

[6] = post-emergence, Postemergence, 0 is no effect, 100 is complete control, read-out: Barnyardgrass plant response rating
[7] = pre-emergence, Preemergence, 0 no effect, 100 complete control, read-out: Plant response rating, Barnyardgrass
[8] = post-emergence, Postemergence, 0 is no effect, 100 is complete control, read-out: Foxtail, Giant plant response rating
[9] = pre-emergence, Preemergence, 0 no effect, 100 complete control, read-out: Plant response rating, Foxtail, Giant
[10] = post-emergence, Postemergence, 0 is no effect, 100 is complete control, read-out: Pigweed plant response rating
[11] = pre-emergence, Preemergence, 0 no effect, 100 complete control, read-out: Plant response rating, Pigweed
[12] = post-emergence, Postemergence, 0 is no effect, 100 is complete control, read-out: Wheat plant response rating
[13] = pre-emergence, Preemergence, 0 no effect, 100 complete control, read-out: Plant response rating, Wheat
[14] = Postemergence, 31 g ai/ha, 0 to 100 scale (0 no effect, 100 complete control)
[15] = Postemergence, 125 g ai/ha, scale 0 to 100, 0 is no effect, 100 is complete control
[16] = Postemergence, 250 g ai/ha, scale 0 to 100, 0 no effect, 100 complete control, 13 to 15 d
[17] = Preemergence, 31 g ai/ha, scale 0 to 100, 0 is no effect, 100 is complete control
[18] = Preemergence, 62 g ai/ha, scale 0 to 100, 0 is no effect, 100 is complete control
[19] = Preemergence, 125 g ai/ha, scale 0 to 100, 0 is no effect, 100 is complete control
[20] = Preemergence, 250 g ai/ha, scale 0 to 100 (0 no effect, 100 complete control)
[21] = postemergence, 62 g ai/ha, scale 0 to 100, 0 no effect, 100 complete control

For `Cc1ccc2sc(C)c(-c3c(O)c(C)nn(C)c3=O)c2c1` [Compound 1, 4-(2,5-dimethylbenzo[b]thien-3-yl)-5-hydroxy-2,6-dimethyl-3(2H)-pyridazinone], the pest or weed control at 1000 g/ha [1, 6] was 90%, the pest or weed control at 1000 g/ha [1, 7] was 90% and the pest or weed control at 1000 g/ha [2, 8] was 80%. It also gave a pest or weed control at 1000 g/ha [2, 9] of 100%, a pest or weed control at 1000 g/ha [3, 10] of 100% and a pest or weed control at 1000 g/ha [3, 11] of 100%. For the same compound, the plant injury at 1000 g/ha [4, 12] was 0%, the plant injury at 1000 g/ha [4, 13] was 0% and the “Corn plant response rating” value (corn (Zea mays); [14]) was 0. The “Plant response rating, Corn” value (corn (Zea mays); [15]) was 5, the “Plant response rating, Corn” value (corn (Zea mays); [16]) was 40 and the “Plant response rating, Corn” value (corn (Zea mays); [17]) was 0. The “Plant response rating, Corn” value (corn (Zea mays); [18]) was 0, the “Plant response rating, Corn” value (corn (Zea mays); [19]) was 0 and the “Corn plant response rating” value (corn (Zea mays); [20]) was 5. The “Corn plant response rating” value (corn (Zea mays); [21]) was 25, the “Ryegrass, Italian plant response rating” value [5, 14] was 80 and the “Plant response rating, Ryegrass, Italian” value [5, 15] was 95. For the same compound, the “Plant response rating, Ryegrass, Italian” value [5, 16] was 98, the “Plant response rating, Ryegrass, Italian” value [5, 17] was 95 and the “Plant response rating, Ryegrass, Italian” value [5, 18] was 100. For the same compound, the “Plant response rating, Ryegrass, Italian” value [5, 19] was 100, the “Ryegrass, Italian plant response rating” value [5, 20] was 100 and the “Ryegrass, Italian plant response rating” value [5, 21] was 90.

Compound `Cc1nn(C)c(=O)c(-c2c(C)oc3c(C)cccc23)c1O` [Compound 9, 4-(2,7-dimethyl-3-benzofuranyl)-5-hydroxy-2,6-dimethyl-3(2H)-pyridazinone] has a pest or weed control at 125 g/ha ([1]; post-emergence, Postemergence, visual rating after approx. 10 d, 0 to 100 scale (0 no effect, 100 complete control), read-out: Plant response rating, Barnyardgrass) of 10%, a pest or weed control at 500 g/ha [1, 6] of 90% and a pest or weed control at 125 g/ha ([1]; pre-emergence, Preemergence, 0 to 100 scale where 0 is no effect and 100 is complete control, read-out: Barnyardgrass plant response rating) of 50%. It also gave a pest or weed control at 500 g/ha [1, 7] of 100%, a pest or weed control at 125 g/ha ([2]; post-emergence, Postemergence, visual rating after approx. 10 d, 0 to 100 scale (0 no effect, 100 complete control), read-out: Plant response rating, Foxtail, Giant) of 10% and a pest or weed control at 500 g/ha [2, 8] of 90%. The pest or weed control at 125 g/ha ([2]; pre-emergence, Preemergence, 0 to 100 scale where 0 is no effect and 100 is complete control, read-out: Foxtail, Giant plant response rating) was 70%, the pest or weed control at 500 g/ha [2, 9] was 100% and the pest or weed control at 125 g/ha ([3]; post-emergence, Postemergence, visual rating after approx. 10 d, 0 to 100 scale (0 no effect, 100 complete control), read-out: Plant response rating, Pigweed) was 0%. For the same compound, the pest or weed control at 500 g/ha [3, 10] was 0%, the pest or weed control at 125 g/ha ([3]; pre-emergence, Preemergence, 0 to 100 scale where 0 is no effect and 100 is complete control, read-out: Pigweed plant response rating) was 0% and the pest or weed control at 500 g/ha [3, 11] was 0%. For the same compound, the plant injury at 125 g/ha ([4]; post-emergence, Postemergence, visual rating after approx. 10 d, 0 to 100 scale (0 no effect, 100 complete control), read-out: Plant response rating, Wheat) was 0%, the plant injury at 500 g/ha [4, 12] was 0% and the plant injury at 125 g/ha ([4]; pre-emergence, Preemergence, 0 to 100 scale where 0 is no effect and 100 is complete control, read-out: Wheat plant response rating) was 0%. It also gave a plant injury at 500 g/ha [4, 13] of 0%.
